This passage reports IC50 results from ChEMBL document CHEMBL3639072, “Heterocyclic derivatives and their use in the treatment of neurological disorders” (2014).

Each structure is given as a SMILES string.

One test deals with T1, Beta-secretase 2 (Homo sapiens, UniProt Q9Y5Z0).
T1 sequence (Q9Y5Z0 whole entry): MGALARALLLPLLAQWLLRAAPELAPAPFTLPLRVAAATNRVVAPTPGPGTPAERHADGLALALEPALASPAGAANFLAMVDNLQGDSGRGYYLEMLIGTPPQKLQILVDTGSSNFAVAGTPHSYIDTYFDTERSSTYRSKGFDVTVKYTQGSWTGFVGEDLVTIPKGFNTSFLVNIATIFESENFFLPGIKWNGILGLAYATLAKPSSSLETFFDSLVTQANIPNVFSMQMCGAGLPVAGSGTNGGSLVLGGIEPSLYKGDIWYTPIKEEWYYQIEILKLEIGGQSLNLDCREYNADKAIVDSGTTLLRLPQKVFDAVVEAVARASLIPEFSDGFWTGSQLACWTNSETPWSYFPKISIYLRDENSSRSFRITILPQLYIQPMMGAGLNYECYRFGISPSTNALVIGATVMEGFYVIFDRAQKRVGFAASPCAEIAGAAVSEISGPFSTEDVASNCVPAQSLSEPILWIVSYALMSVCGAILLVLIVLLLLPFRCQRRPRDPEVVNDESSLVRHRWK

Another test deals with Beta-secretase 1 (Homo sapiens, UniProt P56817).
Sequence of Beta-secretase 1 (P56817 whole entry): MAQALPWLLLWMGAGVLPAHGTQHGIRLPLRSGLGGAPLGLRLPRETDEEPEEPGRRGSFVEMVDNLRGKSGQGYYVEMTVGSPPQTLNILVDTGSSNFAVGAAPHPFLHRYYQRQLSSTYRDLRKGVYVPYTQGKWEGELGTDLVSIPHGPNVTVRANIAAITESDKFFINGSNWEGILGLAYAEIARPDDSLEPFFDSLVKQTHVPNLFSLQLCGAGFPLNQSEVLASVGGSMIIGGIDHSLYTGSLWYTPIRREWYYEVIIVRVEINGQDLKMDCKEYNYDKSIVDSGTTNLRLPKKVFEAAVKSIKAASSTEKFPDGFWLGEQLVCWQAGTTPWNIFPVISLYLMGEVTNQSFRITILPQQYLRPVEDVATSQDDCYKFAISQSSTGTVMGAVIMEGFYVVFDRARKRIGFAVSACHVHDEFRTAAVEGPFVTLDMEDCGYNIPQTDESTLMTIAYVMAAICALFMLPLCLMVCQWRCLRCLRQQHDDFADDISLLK

Broadly, the IC50 is the midpoint of a concentration-inhibition curve. Lower therefore signals inhibition by little substance. Consider `C[C@@]1(c2nc(NC(=O)c3ncc(OCCCF)nc3N)ccc2F)CO[C@@](C)(C(F)(F)F)C(N)=N1`, for which the IC50 against Beta-secretase 2 was determined as 1000 nM; against Beta-secretase 1 it was 200 nM.
In the same order, the values of `Cc1cnc(C(=O)Nc2ccc(F)c([C@]3(C)CO[C@@](C)(C(F)(F)F)C(N)=N3)n2)c(C)n1` are 130 nM and 230 nM.
